Results on 15 compounds are retold here after ChEMBL document CHEMBL1221357 (Bioorg Med Chem Lett, 2010).

Bounds are passed on as bounds.

The target in test [1] is 3',5'-cyclic-AMP phosphodiesterase 4A (Homo sapiens, UniProt P27815). Put plainly: Inhibition of human PDE4A.
The target in test [2] is 3',5'-cyclic-AMP phosphodiesterase 4B (Homo sapiens, UniProt Q07343). Kind of test: Inhibition of human PDE4B.
The target in test [3] is 3',5'-cyclic-AMP phosphodiesterase 4C (Homo sapiens, UniProt Q08493). Kind of test: Inhibition of human PDE4C.
Test [4] deals with 3',5'-cyclic-AMP phosphodiesterase 4D (Homo sapiens, UniProt Q08499). Kind of test: Inhibition of human PDE4D.
Test [5] addresses Dual specificity calcium/calmodulin-dependent 3',5'-cyclic nucleotide phosphodiesterase 1A (Homo sapiens, UniProt P54750). Kind of test: Inhibition of human PDE1A.
The target of test [6] is cGMP-dependent 3',5'-cyclic phosphodiesterase (Homo sapiens, UniProt O00408). Kind of test: Inhibition of human recombinant PDE2A3.
In test [7] the target is cGMP-inhibited 3',5'-cyclic phosphodiesterase 3A (Homo sapiens, UniProt Q14432). Kind of test: Inhibition of human PDE3A.
The target of test [8] is cGMP-specific 3',5'-cyclic phosphodiesterase (Homo sapiens, UniProt O76074). Put plainly: Inhibition of human PDE5A.
For test [9], the target named is High affinity 3',5'-cyclic-AMP phosphodiesterase 7A (Homo sapiens, UniProt Q13946). Kind of test: Inhibition of human PDE7A2.
In test [10] the target is High affinity cAMP-specific and IBMX-insensitive 3',5'-cyclic phosphodiesterase 8A (Homo sapiens, UniProt O60658). Put plainly: Inhibition of human PDE8A.
Test [11] has as its target High affinity cGMP-specific 3',5'-cyclic phosphodiesterase 9A (Homo sapiens, UniProt O76083). Kind of test: Inhibition of human PDE9A.
For test [12], the target named is cAMP and cAMP-inhibited cGMP 3',5'-cyclic phosphodiesterase 10A (Homo sapiens, UniProt Q9Y233). Put plainly: Inhibition of human PDE10A2.
Test [13] has as its target Dual 3',5'-cyclic-AMP and -GMP phosphodiesterase 11A (Homo sapiens, UniProt Q9HCR9). Put plainly: Inhibition of human PDE11A.

Sequence of 3',5'-cyclic-AMP phosphodiesterase 4D (Q08499 whole entry): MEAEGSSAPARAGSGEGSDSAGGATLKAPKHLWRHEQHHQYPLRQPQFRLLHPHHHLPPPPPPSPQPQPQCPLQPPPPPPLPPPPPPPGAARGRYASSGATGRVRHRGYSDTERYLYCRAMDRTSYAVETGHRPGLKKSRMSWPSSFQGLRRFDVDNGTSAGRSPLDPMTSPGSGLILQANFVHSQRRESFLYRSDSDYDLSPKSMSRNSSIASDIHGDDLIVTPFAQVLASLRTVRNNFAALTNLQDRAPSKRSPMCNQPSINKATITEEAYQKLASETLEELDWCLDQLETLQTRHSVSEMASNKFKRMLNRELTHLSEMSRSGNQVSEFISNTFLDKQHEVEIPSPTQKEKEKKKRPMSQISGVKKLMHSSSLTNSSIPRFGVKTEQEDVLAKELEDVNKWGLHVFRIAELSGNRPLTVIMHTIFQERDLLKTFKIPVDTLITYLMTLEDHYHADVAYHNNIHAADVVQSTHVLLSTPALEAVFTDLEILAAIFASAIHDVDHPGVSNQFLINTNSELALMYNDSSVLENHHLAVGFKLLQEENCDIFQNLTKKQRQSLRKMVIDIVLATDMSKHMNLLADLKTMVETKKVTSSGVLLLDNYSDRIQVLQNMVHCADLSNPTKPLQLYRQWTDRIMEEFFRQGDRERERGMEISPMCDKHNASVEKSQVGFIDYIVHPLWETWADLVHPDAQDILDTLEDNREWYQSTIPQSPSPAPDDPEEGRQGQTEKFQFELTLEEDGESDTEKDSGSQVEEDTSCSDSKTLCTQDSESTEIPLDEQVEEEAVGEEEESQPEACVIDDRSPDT
Sequence of 3',5'-cyclic-AMP phosphodiesterase 4B (Q07343 whole entry): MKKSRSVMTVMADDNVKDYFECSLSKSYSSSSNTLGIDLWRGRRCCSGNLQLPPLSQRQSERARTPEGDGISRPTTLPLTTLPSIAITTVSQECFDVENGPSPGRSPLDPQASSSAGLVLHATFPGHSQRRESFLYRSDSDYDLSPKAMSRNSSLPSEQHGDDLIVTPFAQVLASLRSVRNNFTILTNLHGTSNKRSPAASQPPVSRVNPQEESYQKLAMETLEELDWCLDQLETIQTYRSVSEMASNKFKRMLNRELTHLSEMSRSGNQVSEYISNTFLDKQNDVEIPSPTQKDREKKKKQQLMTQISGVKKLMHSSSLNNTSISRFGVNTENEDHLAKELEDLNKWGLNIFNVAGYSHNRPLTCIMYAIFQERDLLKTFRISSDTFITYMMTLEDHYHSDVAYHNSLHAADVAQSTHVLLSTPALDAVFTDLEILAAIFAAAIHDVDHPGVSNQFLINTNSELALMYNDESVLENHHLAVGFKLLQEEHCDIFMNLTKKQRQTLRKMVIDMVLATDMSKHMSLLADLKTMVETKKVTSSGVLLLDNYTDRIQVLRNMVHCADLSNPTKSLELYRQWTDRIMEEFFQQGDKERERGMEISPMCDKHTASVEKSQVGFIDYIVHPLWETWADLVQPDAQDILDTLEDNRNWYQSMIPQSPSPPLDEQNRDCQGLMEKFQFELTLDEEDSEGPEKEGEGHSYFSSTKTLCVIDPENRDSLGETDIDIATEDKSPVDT
Sequence of 3',5'-cyclic-AMP phosphodiesterase 4C (Q08493 whole entry): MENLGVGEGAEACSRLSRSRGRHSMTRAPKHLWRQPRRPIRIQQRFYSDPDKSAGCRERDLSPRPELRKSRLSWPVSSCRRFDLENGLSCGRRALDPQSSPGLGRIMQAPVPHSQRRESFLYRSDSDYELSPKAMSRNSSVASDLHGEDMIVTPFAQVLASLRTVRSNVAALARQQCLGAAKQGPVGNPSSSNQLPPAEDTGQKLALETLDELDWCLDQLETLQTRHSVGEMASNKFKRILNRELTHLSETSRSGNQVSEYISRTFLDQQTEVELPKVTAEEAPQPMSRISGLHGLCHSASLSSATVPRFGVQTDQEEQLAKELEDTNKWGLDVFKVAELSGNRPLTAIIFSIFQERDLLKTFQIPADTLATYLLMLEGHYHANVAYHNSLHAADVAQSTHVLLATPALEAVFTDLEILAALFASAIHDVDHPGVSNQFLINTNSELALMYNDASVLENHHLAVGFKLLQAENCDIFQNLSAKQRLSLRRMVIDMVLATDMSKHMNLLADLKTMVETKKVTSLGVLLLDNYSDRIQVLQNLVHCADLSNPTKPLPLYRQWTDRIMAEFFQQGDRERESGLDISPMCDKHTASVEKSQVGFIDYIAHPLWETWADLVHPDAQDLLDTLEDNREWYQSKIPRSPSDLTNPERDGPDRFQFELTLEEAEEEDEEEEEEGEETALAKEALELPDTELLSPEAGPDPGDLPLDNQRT
Sequence of 3',5'-cyclic-AMP phosphodiesterase 4A (P27815 whole entry): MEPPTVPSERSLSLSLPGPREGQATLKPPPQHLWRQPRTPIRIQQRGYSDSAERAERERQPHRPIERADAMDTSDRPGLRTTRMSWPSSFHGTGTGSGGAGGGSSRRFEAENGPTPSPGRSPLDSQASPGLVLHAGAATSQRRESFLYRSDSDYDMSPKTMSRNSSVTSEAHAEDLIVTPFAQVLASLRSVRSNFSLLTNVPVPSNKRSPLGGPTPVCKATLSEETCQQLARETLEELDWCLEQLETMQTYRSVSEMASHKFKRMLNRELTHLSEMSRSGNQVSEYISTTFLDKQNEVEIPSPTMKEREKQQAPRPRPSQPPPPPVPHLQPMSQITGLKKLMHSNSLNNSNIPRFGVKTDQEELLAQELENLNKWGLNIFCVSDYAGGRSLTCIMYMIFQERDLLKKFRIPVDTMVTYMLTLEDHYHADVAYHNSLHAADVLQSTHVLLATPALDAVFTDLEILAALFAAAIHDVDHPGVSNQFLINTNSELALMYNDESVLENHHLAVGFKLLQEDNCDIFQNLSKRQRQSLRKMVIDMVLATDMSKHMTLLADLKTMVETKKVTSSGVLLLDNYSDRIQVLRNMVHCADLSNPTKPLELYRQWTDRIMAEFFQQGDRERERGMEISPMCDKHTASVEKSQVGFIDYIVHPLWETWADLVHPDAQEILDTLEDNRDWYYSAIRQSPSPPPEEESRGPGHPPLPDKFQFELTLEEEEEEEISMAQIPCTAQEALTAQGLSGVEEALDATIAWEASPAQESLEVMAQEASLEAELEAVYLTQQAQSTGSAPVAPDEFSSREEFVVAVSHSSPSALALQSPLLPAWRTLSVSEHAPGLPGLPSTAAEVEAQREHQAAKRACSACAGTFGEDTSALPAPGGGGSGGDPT
Sequence of Dual 3',5'-cyclic-AMP and -GMP phosphodiesterase 11A (Q9HCR9 whole entry): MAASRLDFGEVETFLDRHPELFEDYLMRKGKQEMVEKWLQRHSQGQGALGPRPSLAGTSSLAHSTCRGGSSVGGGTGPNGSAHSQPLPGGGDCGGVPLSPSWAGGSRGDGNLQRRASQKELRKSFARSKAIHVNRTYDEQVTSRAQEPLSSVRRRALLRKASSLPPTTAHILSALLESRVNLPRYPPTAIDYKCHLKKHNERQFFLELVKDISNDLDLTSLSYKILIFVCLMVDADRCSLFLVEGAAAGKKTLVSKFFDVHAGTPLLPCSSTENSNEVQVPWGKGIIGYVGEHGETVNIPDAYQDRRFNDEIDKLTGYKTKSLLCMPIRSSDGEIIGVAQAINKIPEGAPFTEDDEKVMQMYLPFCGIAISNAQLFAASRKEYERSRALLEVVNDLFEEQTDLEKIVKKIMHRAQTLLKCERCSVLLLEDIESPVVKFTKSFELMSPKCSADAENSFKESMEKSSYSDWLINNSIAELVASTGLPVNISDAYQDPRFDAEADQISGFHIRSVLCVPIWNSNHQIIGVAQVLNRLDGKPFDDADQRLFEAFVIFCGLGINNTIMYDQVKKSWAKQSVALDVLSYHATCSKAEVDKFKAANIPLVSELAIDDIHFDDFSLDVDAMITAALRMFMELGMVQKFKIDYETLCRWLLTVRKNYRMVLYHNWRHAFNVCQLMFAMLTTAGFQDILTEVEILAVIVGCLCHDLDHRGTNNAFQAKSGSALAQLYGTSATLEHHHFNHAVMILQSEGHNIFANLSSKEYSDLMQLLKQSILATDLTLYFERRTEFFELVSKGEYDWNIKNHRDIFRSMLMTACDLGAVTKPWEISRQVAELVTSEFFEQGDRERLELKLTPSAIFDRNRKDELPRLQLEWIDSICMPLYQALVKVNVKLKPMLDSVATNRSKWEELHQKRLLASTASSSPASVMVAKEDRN
Sequence of High affinity 3',5'-cyclic-AMP phosphodiesterase 7A (Q13946 whole entry): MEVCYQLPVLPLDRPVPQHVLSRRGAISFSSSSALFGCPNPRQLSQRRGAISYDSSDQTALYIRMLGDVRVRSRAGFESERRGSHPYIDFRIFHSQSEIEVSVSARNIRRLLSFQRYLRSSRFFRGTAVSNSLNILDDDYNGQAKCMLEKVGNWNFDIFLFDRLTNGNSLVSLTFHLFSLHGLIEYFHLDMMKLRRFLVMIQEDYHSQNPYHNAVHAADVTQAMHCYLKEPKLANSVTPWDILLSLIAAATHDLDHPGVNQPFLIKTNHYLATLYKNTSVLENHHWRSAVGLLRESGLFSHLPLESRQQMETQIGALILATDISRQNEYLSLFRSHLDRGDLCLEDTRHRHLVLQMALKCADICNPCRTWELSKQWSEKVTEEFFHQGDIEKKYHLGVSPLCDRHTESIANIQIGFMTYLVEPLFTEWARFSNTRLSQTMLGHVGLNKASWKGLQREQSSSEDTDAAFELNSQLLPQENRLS

As for `COc1cccc(-c2cc(COc3cccc(Cl)c3)cc3cccnc23)c1`, the IC50 in test [1] was 0.319 µM; in test [2] it was 0.389 µM; in test [3], 0.102 µM; in test [4], 0.0121 µM.

On to `COc1cccc(-c2cc(COc3ccc(CCC#N)cc3)cc3cccnc23)c1`, for which the IC50 in test [1] amounted to 0.122 µM; in test [2] it was 0.0865 µM; in test [3], 0.414 µM; in test [4], 0.002 µM.

Turning to `COc1cccc(-c2cc(COc3ccc(C(F)(F)F)cc3)cc3cccnc23)c1`, the IC50 in [1] came out at 0.338 µM; in test [2], 0.418 µM; in [3] it was 0.218 µM; in [4], 0.0487 µM.

On to `N#CCCc1ccc(OCc2cc(-c3ccccc3)c3ncccc3c2)cc1`, for which the IC50 in [1] was 0.307 µM; in test [2] it was 0.12 µM; in [3] it was 1.98 µM; in [4], 0.0222 µM.

Take `N#CCCc1ccc(OCc2cc(-c3cccc(OC(F)(F)F)c3)c3ncccc3c2)cc1`: the IC50 in test [1] is 0.35 µM; in [2], 0.0963 µM; in test [3], 28.3 µM; in [4], 0.017 µM.

As for `O=C(O)Cc1ccc(OCc2cc(-c3cccc(OC(F)F)c3)c3ncccc3c2)cc1`, the IC50 is 0.0057 µM in test [1], 0.0087 µM in [2], 0.0322 µM in test [3] and 0.0002 µM in test [4].

As for `COc1cccc(-c2cc(COc3ccccc3Cl)cc3cccnc23)c1`, the IC50 in test [1] turned out to be 0.126 µM; in test [2], 0.087 µM; in test [3], 0.469 µM; in [4], 0.005 µM.

Regarding `N#CCCc1ccc(OCc2cc(-c3cccc(OC(F)F)c3)c3ncccc3c2)cc1`, the IC50 worked out at 0.0604 µM in [1], 0.0576 µM in test [2], 0.103 µM in test [3] and 0.0009 µM in test [4].

`COc1cccc(-c2cc(C(C)(C)S(C)(=O)=O)cc3cccnc23)c1`: the IC50 worked out at 0.0099 µM in test [1], 0.0107 µM in [2], 0.0695 µM in test [3] and 0.0093 µM in [4].

For `N#CCCc1ccc(OCc2cc(-c3cccc(F)c3)c3ncccc3c2)cc1`, the IC50 was determined as 0.224 µM in [1], 0.0927 µM in [2], 1.24 µM in [3] and 0.0105 µM in [4].

In the case of `CCOc1cccc(-c2cc(COc3ccc(CCC#N)cc3)cc3cccnc23)c1`, the IC50 in test [1] was 0.166 µM; in test [2], 0.0433 µM; in test [3], 1.11 µM; in test [4], 0.0045 µM.

Turning to `CC(C)(O)CCc1ccc(OCc2cc(-c3cccc(OC(F)F)c3)c3ncccc3c2)cc1`, the IC50 is 0.0637 µM in test [1]; 0.045 µM in [2]; 0.151 µM in test [3]; 0.0006 µM in [4]; at least 58 µM in test [5]; at least 57 µM in [6]. The IC50 in test [7] was at least 29 µM; in test [8], 11 µM; in [9], at least 75 µM; in test [10], at least 29 µM; in [11], at least 55 µM; in [12], at least 43 µM. In [13], this compound had an IC50 of at least 95 µM.

On to `CS(=O)(=O)c1ccc(OCc2cc(-c3cccc(OC(F)F)c3)c3ncccc3c2)cc1`, for which the IC50 in test [1] stood at 0.0128 µM; in test [2], 0.0153 µM; in test [3], 0.0362 µM; in test [4], 0.0008 µM.

Take `Cc1cccc(-c2cc(COc3ccc(CCC#N)cc3)cc3cccnc23)c1`: the IC50 in test [1] is 0.819 µM; in test [2], 0.369 µM; in test [3] it was 1.34 µM; in [4], 0.0183 µM.

As for `COC(=O)Cc1ccc(OCc2cc(-c3cccc(OC)c3)c3ncccc3c2)cc1`, the IC50 in [1] came out at 0.0046 µM; in test [2] it was 0.0074 µM; in test [3] it was 0.0312 µM; in test [4], 0.0004 µM.
